The structures appear in SMILES notation. “Also recorded” adds a separate entry of the source.

Experiment [1] has as its system HepG2 cells. The experiment in a line: MTT cytotoxicity assay against HepG2. As to conditions: mean ± SD, n = 3. Type of experiment: cell-based. The procedure:
(§1) The cell lines were supplemented with 10% fetal bovine serum (Sigma-Aldrich, MO, USA) and 1% penicillin–streptomycin. Compounds were added to the cells on the second day at doses of “0, 0.01, 0.1, 1, 10, and 100 μM”. Cell viability was assessed after 48 h using the MTT solution (Promega, USA).
Background: Formazan colour is commonly taken as a measure of viable cells.

Another experiment concerns THLE2 cells. Put plainly: MTT cytotoxicity assay against THLE2. Type of experiment: cell-based. The conditions noted are these: Homo sapiens, THLE-2, 48 h, normal liver cells, mean ± SD, n = 3. The procedure:
as §1

Another experiment concerns the target T1, CDK-2 kinase (Homo sapiens, UniProt P24941).
T1 construct: purchased Promega (so in the source) 79,599
The experiment in a line: CDK-2 luminescence kinase assay kit. Type of experiment: biochemical. As to conditions: for IC50: average of three independent replicates.

Another experiment has as its target T2, VEGFR2 kinase (Homo sapiens, UniProt P35968).
T2 construct: purchased BPS Bioscience 40,325
The experiment in a line: VEGFR2 (KDR) kinase assay kit. Type of experiment: biochemical. As to conditions: for IC50: average of three independent replicates.

The subject of experiment [2] is HepG2 cells. Put plainly: DNA content flow cytometry cell cycle analysis. Type of experiment: cell-based. As to conditions: HepG2, IC50 values, 48 h; for DNA content %G2/M: control 20.6; for DNA content %S: control 37.59; for DNA content %G0-G1: control 41.81. The procedure:
(§2) HepG2 cells (3–5 105 cells/well) were cultured onto 6-well culture plates and incubated overnight. […] The cells and medium supernatants were then washed with ice-cold PBS. After that, […] of annexin binding buffer solution was added to the cell suspension "25 mM CaCl2, 1.4 M NaCl, and 0.1 M Hepes/NaOH, pH 7.4″ and incubation with “Annexin V-FITC solution (1:100) and propidium iodide (PI)” at a concentration equals 10 µg/mL in the dark for 30 min. The Cytoflex FACS system was then used to acquire the stained cells. cytExpert was used for data analysis.
Kit used : ab139418_Propidium Iodide Flow Cytometry Kit/BD

Experiment [3] concerns HepG2 cells. The experiment in a line: Annexin V/PI staining flow cytometry (apoptosis/necrosis). Type of experiment: cell-based. On the set-up: Apoptosis Total / Apoptosis Early / Apoptosis Late: unit not given here. The conditions noted are these: for total apoptosis (overall apoptotic cell death): untreated control 0.95%; for Apoptosis Late: Cont.HepG2 0.23; for Apoptosis Early: Cont.HepG2 0.72; for Apoptosis Total: Cont.HepG2 2.47. The procedure:
as §2
(In general: A flow cytometer gives signals particle by particle.)

In another experiment the test system is HepG2 liver cancer cells. On the set-up: method as in PMID 32559576, PMID 37234266, doi:10.1016/j.molstruc.2023.135765. The conditions noted are these: Fig. 1; read-out: IC50 against HepG2 liver cancer cells; cited from earlier work.
Where [4] appears, read: HepG2, at the IC50 values, 48 h.
Where [5] appears, read: HepG2, at the IC50 values, 48 h, untreated control 1.52%.
Where [6] appears, read: supplement lab report, HepG2, Cont.HepG2 1.52.

T2 sequence (P35968 20-1356): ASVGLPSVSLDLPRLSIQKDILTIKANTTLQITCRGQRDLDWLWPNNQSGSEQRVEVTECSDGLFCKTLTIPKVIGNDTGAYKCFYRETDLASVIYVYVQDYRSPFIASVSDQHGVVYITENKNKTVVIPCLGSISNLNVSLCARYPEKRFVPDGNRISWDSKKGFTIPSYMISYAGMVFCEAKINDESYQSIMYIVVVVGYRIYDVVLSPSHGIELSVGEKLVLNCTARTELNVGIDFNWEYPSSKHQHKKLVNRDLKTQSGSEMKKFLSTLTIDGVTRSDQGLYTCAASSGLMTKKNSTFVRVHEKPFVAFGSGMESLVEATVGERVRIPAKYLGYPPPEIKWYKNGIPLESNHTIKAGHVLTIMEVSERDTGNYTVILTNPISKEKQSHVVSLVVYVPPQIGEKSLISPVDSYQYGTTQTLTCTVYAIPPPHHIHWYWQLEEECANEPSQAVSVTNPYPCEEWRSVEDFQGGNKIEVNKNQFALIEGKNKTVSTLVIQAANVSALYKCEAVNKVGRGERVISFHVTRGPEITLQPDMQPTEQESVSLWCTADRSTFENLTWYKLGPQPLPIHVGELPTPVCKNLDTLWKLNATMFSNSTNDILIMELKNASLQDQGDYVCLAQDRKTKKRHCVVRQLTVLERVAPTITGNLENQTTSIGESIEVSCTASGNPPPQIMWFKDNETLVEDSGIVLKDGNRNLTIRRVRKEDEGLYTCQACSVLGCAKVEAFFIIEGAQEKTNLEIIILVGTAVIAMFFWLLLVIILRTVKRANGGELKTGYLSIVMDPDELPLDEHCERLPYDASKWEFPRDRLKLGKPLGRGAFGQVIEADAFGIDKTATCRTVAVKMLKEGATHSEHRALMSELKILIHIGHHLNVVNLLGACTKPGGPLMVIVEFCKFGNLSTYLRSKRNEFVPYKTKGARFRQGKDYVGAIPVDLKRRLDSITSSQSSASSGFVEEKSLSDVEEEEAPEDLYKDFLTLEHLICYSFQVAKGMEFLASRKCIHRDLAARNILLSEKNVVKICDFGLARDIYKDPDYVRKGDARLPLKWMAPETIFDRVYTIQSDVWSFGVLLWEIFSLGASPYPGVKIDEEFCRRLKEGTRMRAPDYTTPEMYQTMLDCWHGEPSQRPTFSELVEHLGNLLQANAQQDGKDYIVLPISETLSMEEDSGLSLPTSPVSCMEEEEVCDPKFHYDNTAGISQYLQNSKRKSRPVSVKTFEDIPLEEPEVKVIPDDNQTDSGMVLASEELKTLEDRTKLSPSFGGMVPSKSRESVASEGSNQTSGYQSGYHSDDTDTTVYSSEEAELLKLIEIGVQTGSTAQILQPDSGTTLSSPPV

Usually IC50 stands for the point on the concentration scale where inhibition reaches its midpoint. With `CC1=NN(C(c2ccccc2)N2CCOCC2)C(=O)C1N=Nc1ccccc1` (stereo not drawn) [Compound 3a, 5-Methyl-2-(morpholino(phenyl)methyl)-4-(phenyldiazenyl)-2,4-dihydro-3H-pyrazol-3-one], the 50% inhibitory concentration (IC50) stood at 33.9 ± 1.89 µM in the experiment with HepG2 cells [1] (Homo sapiens, HepG2, 48 h) and 41.2 ± 1.19 µM with THLE2 cells.

For the compound `CC1=NN(C(c2ccccc2)N2CCOCC2)C(=O)C1N=Nc1ccccc1[N+](=O)[O-]` (stereo not drawn) [Compound 3b, 5-Methyl-2-(morpholino(phenyl)methyl)-4-((2-nitrophenyl)diazenyl)-2,4-dihydro-3H-pyrazol-3-one], the IC50 with HepG2 cells [1] (Homo sapiens, HepG2, 48 h) came to 55.5 ± 3.1 µM; with THLE2 cells it was 47.2 ± 1.85 µM.

In the case of `CC1=NN(C(c2ccccc2)N2CCOCC2)C(=O)C1N=Nc1ccc(Cl)cc1` (stereo not drawn) [Compound 3c, 4-((4-Chlorophenyl)diazenyl)-5-methyl-2-(morpholino(phenyl)methyl)-2,4-dihydro-3H-pyrazol-3-one], the IC50 in the experiment on THLE2 cells was 34.5 ± 2.1 µM.

Usually inhibition stands for the percentage by which the read-out fell short of the control. `CC1=NN(C(c2ccccc2)N2CCCCC2)C(=O)C1N=Nc1ccccc1` (stereo not drawn) [Compound 4a, 5-Methyl-2-(phenyl(piperidin-1-yl)methyl)-4-(phenyldiazenyl)-2,4-dihydro-3H -pyrazol-3-one]: the inhibition at 10 µM on CDK-2 kinase was determined as 90.9 ± 1.9%; on VEGFR2 kinase, 90.5 ± 2.1%. Besides, the IC50 was 0.205 ± 0.011 µM at CDK-2 kinase; 0.55 ± 0.006 µM against VEGFR2 kinase; 4.43 ± 0.25 µM with HepG2 cells [1] (48 h); 4.4 µM with HepG2 cells [1] (Homo sapiens, HepG2, 48 h); 27.3 ± 1.15 µM in the experiment on THLE2 cells.

On to `CC1=NN(C(c2ccccc2)N2CCCCC2)C(=O)C1N=Nc1ccccc1[N+](=O)[O-]` (stereo not drawn) [Compound 4b, 5-Methyl-4-((2-nitrophenyl)diazenyl)-2-(phenyl(piperidin-1-yl)methyl)-2,4-dihydro-3H-pyrazol-3-one], for which the concentration for half-maximal inhibition (IC50) amounted to 9.34 ± 0.52 µM with HepG2 cells [1] (48 h); 9.33 µM with HepG2 cells [1] (Homo sapiens, HepG2, 48 h); 72.4 ± 2.15 µM with THLE2 cells.

Regarding `CC1=NN(C(c2ccccc2)N2CCCCC2)C(=O)C1N=Nc1ccc(Cl)cc1` (stereo not drawn) [Compound 4c, 4-((4-Chlorophenyl)diazenyl)-5-methyl-2-(phenyl(piperidin-1-yl)methyl)-2,4-dihydro-3H-pyrazol-3-one], the 50% inhibitory concentration (IC50) in the experiment with HepG2 cells [1] (Homo sapiens, HepG2, 48 h) worked out at 25.2 ± 1.41 µM; in the experiment with THLE2 cells it was 34.7 ± 1.05 µM.

On to `Cc1nn(C(Nc2ccccc2)c2ccccc2)c(O)c1N=Nc1ccccc1` (stereo not drawn) [Compound 5a, 3-Methyl-1-(phenyl(phenylamino)methyl)-4-(phenyldiazenyl)-1H-pyrazol-5-ol], for which, in the experiment on HepG2 cells [2], the “DNA content %G2/M” value is 15.61%, the “DNA content %S” value was found to be 35.21% and the “DNA content %G0-G1” value was found to be 49.18%. In addition, the “cell cycle phase of growth arrest (Comment)” value (from here on “cell cycle phase”) in the experiment with HepG2 cells [2] (listed as s20) is given as “cell growth arrest@ G1”. On CDK-2 kinase, this compound had an inhibition at 10 µM of 91 ± 2.1% and an IC50 of 0.311 ± 0.011 µM. For the same compound, on VEGFR2 kinase, testing at 10 µM gave an inhibition of 91.7 ± 3.1% and the IC50 is 0.267 ± 0.001 µM. The same compound yielded an IC50 with HepG2 cells [1] (Homo sapiens, HepG2, 48 h) of 3.46 ± 0.16 µM. Further, half-maximal inhibition in the experiment on THLE2 cells (IC50) required 48.7 ± 2.05 µM. In addition, the “total apoptosis (overall apoptotic cell death)” value in the experiment with HepG2 cells [3] (setting [4]) was 38.32%. Further, in the experiment on HepG2 cells [3] (setting [5]), the necrosis was 4.63%. Besides, in the experiment with HepG2 cells [3] (supplement lab report, HepG2), the “Apoptosis Late” value was 11.55, the “Apoptosis Early” value came out at 26.77 and the “Apoptosis Total” value stood at 42.95. This compound also yielded a necrosis in the experiment on HepG2 cells [3] (setting [6]) of 4.63.

As for `Cc1nn(C(Nc2ccccc2[N+](=O)[O-])c2ccccc2)c(O)c1N=Nc1ccccc1` (stereo not drawn) [Compound 5b, 3-Methyl-1-((2-nitrophenylamino)(phenyl)methyl)-4-(phenyldiazenyl)-1H-pyrazol-5-ol], the IC50 in the experiment on HepG2 cells [1] (48 h) was found to be 17.3 ± 0.8 µM; with HepG2 cells [1] (Homo sapiens, HepG2, 48 h), 17.1 µM; in the experiment with THLE2 cells, 65.2 ± 2.3 µM.

Compound `Cc1nn(C(Nc2c(C)n(C)n(-c3ccccc3)c2=O)c2ccccc2)c(O)c1N=Nc1ccccc1` (stereo not drawn) [Compound 6a, 4-(((5-Hydroxy-3-methyl-4-(phenyldiazenyl)-1H-pyrazol-1-yl)(phenyl)methyl)amino)-1,5-dimethyl-2-phenyl-1,2-dihydro-3H-pyrazol-3-one] showed an IC50 with THLE2 cells of 75.3 ± 3.3 µM.

In the case of `Cc1nn(C(Nc2c(C)n(C)n(-c3ccccc3)c2=O)c2ccccc2)c(O)c1N=Nc1ccccc1[N+](=O)[O-]` (stereo not drawn) [Compound 6b, 4-(((5-Hydroxy-3-methyl-4-((2-nitrophenyl)diazenyl)-1H-pyrazol-1-yl)(phenyl)methyl)amino)-1,5-dimethyl-2-phenyl-1,2-dihydro-3H-pyrazol-3-one], in the experiment on HepG2 cells [2], the “cell cycle phase” value is on record as “S-phases; also recorded: S phase”, the “DNA content %G2/M” value is 12.49%, the “DNA content %S” value is 41.33% and the “DNA content %G0-G1” value came to 46.18%. For the same compound, the “cell cycle phase” value in the experiment with HepG2 cells [2] (listed as s31) was “cell growth arrest@ G1/S”. At CDK-2 kinase, the inhibition at 10 µM came out at 88.7 ± 2.6% and inhibition was half-maximal at 0.458 ± 0.017 µM (IC50). On VEGFR2 kinase, this compound showed an inhibition at 10 µM of 93.2 ± 2.9% and a half-maximal inhibitory concentration (IC50) of 0.2 ± 0.001 µM. Moreover, in the experiment with HepG2 cells [1] (Homo sapiens, HepG2, 48 h), 2.52 ± 0.12 µM corresponded to half-maximal inhibition (IC50). In the experiment with THLE2 cells, the IC50 worked out at 60.2 ± 2.54 µM. Besides, the “total apoptosis (overall apoptotic cell death)” value with HepG2 cells [3] (setting [4]) is reported as 42.9%. Also, the necrosis in the experiment on HepG2 cells [3] (setting [5]) is 7.54%. Also, in the experiment with HepG2 cells [3] (supplement lab report, HepG2), the “Apoptosis Late” value was 14.48, the “Apoptosis Early” value is recorded as 29.17 and the “Apoptosis Total” value came out at 51.19. For the same compound, the necrosis in the experiment with HepG2 cells [3] (setting [6]) worked out at 7.54.

In the case of `COc1ccc(OC)c(NC(=O)c2cc(-c3c[nH]c4ccccc34)n[nH]2)c1` [SI], the IC50 in the experiment with HepG2 liver cancer cells was 0.6 µM.

Regarding `CNC(=O)c1cc(Oc2ccc(NC(=O)Nc3ccc(Cl)c(C(F)(F)F)c3)cc2)ccn1` [Sorafenib, reference compound], in the experiment on THLE2 cells, the IC50 amounted to 17 ± 0.72 µM.

As to `COc1cccc2c1C(=O)c1c(O)c3c(c(O)c1C2=O)C[C@@](O)(C(=O)CO)C[C@@H]3O[C@H]1C[C@H](N)[C@H](O)[C@H](C)O1` [doxorubicin, reference compound], the IC50 with HepG2 cells [1] (Homo sapiens, HepG2, 48 h) amounted to 2.05 µM.

The values are drawn from paper PMC11520136, “Design, synthesis, and biological investigations of new pyrazole derivatives as VEGFR2/CDK-2 inhibitors targeting liver cancer” (BMC Chemistry, 2024).
